Results published in patent EP4592286A1, “MACROCYCLIC NITROGEN-CONTAINING CROWN ETHER COMPOUND AND USE THEREOF AS PROTEIN KINASE INHIBITOR” (Artivila Biopharma, priority 2022, dated 2024).

How the values were obtained:
[1] = molecular target: T1, endogenous phosphorylated LRRK2 (S935) (Homo sapiens, UniProt Q5S007); experiment: detection of endogenous phosphorylated LRRK2 (S935) in A549 cells (Western blot); assay type: cell-based; details: 15 hours; for inhibition at 2 µM / inhibition at 1 µM: LRRK2 (S935) activity in A549 cells, read-out: Inhibition rate; for IC50: A549 cells, Table 11, read-out: IC50 of inhibitory activity on LRRK2 (S935) activity in A549 cells (column head: Inhibition rate)
T1 construct: Detection of endogenous phosphorylated LRRK2 (S935) in A549 cells; endogenous in cells; host or cells: A549
T1 sequence (Q5S007 whole entry): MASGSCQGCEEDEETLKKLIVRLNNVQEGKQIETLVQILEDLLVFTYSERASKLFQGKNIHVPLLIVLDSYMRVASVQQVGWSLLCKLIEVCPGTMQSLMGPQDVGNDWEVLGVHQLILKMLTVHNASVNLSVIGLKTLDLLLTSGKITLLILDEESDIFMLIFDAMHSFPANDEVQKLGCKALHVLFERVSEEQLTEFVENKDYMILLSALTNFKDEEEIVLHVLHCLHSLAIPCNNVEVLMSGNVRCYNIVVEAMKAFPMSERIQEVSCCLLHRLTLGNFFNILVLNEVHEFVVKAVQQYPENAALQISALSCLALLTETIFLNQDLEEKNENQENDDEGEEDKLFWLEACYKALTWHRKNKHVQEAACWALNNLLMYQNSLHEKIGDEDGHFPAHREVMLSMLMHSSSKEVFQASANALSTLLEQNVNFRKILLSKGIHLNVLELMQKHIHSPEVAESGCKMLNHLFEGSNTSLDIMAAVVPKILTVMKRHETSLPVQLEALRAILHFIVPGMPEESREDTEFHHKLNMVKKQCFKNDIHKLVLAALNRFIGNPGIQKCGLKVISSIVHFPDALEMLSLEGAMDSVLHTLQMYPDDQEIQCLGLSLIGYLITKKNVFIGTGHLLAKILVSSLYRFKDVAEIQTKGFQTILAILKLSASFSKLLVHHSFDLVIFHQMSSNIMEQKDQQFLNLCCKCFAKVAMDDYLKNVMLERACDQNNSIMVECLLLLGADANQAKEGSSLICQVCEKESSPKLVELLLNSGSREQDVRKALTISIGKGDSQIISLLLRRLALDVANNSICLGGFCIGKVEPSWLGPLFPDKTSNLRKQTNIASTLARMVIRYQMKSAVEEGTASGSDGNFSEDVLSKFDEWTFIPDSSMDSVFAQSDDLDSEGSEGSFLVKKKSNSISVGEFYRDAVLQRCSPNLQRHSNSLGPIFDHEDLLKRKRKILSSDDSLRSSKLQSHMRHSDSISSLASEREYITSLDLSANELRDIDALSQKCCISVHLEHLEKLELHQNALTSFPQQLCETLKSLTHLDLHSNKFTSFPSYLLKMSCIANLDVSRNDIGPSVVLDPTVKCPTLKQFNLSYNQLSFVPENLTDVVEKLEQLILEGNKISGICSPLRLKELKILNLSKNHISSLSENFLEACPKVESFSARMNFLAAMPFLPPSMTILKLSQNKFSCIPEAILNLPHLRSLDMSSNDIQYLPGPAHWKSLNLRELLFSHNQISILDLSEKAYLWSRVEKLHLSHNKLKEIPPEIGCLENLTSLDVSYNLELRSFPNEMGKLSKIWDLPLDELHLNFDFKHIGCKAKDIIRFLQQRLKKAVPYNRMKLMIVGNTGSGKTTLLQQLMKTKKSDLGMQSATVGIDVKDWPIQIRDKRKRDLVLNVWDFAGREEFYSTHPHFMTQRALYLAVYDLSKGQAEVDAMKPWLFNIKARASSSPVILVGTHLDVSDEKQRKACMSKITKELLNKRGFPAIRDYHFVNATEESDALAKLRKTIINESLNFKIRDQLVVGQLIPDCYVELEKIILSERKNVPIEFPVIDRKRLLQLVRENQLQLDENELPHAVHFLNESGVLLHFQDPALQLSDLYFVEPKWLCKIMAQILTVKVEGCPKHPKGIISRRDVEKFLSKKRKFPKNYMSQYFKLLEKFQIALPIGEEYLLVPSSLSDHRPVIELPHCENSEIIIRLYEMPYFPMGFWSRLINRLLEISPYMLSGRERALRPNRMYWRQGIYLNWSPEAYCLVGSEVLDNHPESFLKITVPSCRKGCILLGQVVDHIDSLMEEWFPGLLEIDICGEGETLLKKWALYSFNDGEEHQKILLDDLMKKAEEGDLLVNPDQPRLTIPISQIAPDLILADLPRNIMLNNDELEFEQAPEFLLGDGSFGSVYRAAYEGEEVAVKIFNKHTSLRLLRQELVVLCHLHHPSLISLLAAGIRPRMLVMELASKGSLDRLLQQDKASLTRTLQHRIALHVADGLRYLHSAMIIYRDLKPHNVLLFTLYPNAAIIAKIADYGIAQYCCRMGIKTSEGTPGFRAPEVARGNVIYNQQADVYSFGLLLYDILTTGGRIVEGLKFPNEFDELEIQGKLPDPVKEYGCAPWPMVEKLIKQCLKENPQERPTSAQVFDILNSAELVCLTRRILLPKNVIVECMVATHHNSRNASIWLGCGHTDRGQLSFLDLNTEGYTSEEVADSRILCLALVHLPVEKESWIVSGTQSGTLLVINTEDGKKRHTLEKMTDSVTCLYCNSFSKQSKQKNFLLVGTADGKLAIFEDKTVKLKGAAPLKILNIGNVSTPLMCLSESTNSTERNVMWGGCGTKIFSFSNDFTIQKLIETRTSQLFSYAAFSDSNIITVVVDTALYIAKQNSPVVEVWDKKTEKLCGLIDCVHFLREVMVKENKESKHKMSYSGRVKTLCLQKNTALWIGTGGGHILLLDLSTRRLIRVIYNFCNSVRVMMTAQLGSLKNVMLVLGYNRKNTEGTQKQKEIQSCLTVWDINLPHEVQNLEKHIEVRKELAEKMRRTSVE
Procedure: Detection of endogenous phosphorylated LRRK2 (S935) in A549 cells
A549 cells were resuspended in serum-free 1640 medium at a density of 1×10^6 cells/ml, and inoculated into a 6-well plate at 1 ml/well, and cultured at 37°C and 5% CO2 for 6-8 hours. 1 microliter of compound solution in DMSO or DMSO (volume ratio of 0.1%) was added, mixed evenly, and cultivated at 37°C and 5% CO2 for 15 hours. Cells were collected, 50 microliters of RIPA III lysis solution were added to each sample to lyse cells on ice for 15 minutes, centrifuged at 4°C and 13000 rpm for 30 minutes, the supernatant was collected, the protein concentration of cell lysis solution was measured by BCA, and the protein concentrations of all samples were normalized. 5×sample loading buffer were added and kept at 95°C for 10 minutes. The content of phosphorylated S935 of endogenous LRRK2 was detected by Western blot, using antibody against phosphorylated LRRK2 (S935) (Abcam#133450). The signal intensity of phosphorylated LRRK2 (S935) was counted by Image J, the signal of phosphorylated LRRK2 (S935) in a sample was normalized by β-actin, and the data was analyzed.

LRRK2 = LRRK2 (Homo sapiens, UniProt Q5S007); experiment: experiment of inhibiting LRRK2 kinase activity (ADP-Glo method); assay type: biochemical; details: Table 4
Chain of LRRK2 (Q5S007 whole entry): as above
Procedure: The inhibitory effect of the compounds on the activity of LRRK2 kinase was detected by ADP-Glo method. The diluted solutions of the compounds were transfered to a 384-well plate (784075, Greiner), the plate was sealed and centrifuged at a speed of 1000 g for 1 minute. A kinase solution at 2-fold final concentration was prepared with 1×kinase buffer, 2.5 µl of the kinase solution with 2-fold final concentration was added to the wells, the plate was centrifuged at 1000 g for 30 seconds, and left at room temperature for 10 minutes. A mixed solution of ATP and kinase substrate at 2-fold final concentration was prepared with 1×kinase buffer, and 2.5 µL of mixed solution of ATP and substrate at 2-fold final concentration was added to start the reaction. The plate was centrifuged at 1000 g for 30 seconds, sealed and left at room temperature for 2 hours. 4 µL of ADP-Glo reagent was added and incubated at room temperature for 40 minutes; 8 µL kinase detection reagent was added and incubated at room temperature for another 40 minutes. The luminescence signal value was detected on Envision 2104 microplate reader. The conversion inhibition rate%=100-(compound signal value-positive control signal value)/(blank control signal value-positive control signal value)×100.
The IC50 was calculated with GraphPad 6.0 and the dose-responsive curve of the compounds was plotted as follows: y=Bottom+(Top-Bottom)/(1+10^((logic50-x)×hillslope)), where x was logarithm of inhibitor concentration; and y was % inhibition rate.

Row | SMILES | inhibition at 2 µM [1] | IC50 (LRRK2) | inhibition at 1 µM [1] | IC50 [1]
1 | CN1CCOc2ccc(Nc3ncc(Cl)c(O[C@H]4CC[C@@](C)(O)CC4)n3)cc2OCC1 [Example 102, (1s,4s)-4-((5-chloro-2-((4-methyl-3,4,5,6-tetrahydro-2H-benzo[b][1,4,7]dioxazolin-9-yl)amino)pyrimidin-4-yl)oxy)-1-methylcyclohexan-1-ol] |  | < 100 nM | > 0% | 
2 | CN1CCOc2ccc(Nc3ncc(C(F)(F)F)c(O[C@H]4CC[C@@](C)(O)CC4)n3)cc2OCC1 [Example 93, (1s,4s)-1-methyl-4-((2-((4-methyl-3,4,5,6-tetrahydro-2H-benzo[b][1,4,7]dioxazolin-9-yl)amino)-5-(trifluoromethyl)pyrimidin-4-yl)oxy)cyclohexan-1-ol] |  | < 100 nM |  | 100 to 500 nM
3 | CN1CCOCCOc2ccc(Nc3ncc(F)c(O[C@H]4CC[C@@](C)(O)CC4)n3)cc2OCC1 [Example 103, (1s,4s)-4-((5-fluoro-2-((7-methyl-2,3,6,7,8,9-hexahydro-5H-benzo[b][1,4,7]trioxa[10]azacyclododecan-12-yl)amino)pyrimidin-4-yl)oxy)-1-methylcyclohexan-1-ol] |  | 100 to 500 nM |  | < 100 nM
4 | CN1CCOc2ccc(Nc3ncc(F)c(O[C@H]4CC[C@@](C)(O)CC4)n3)cc2OCC1 [Example 100, (1s,4s)-4-((5-fluoro-2-((4-methyl-3,4,5,6-tetrahydro-2H-benzo[b][1,4,7]dioxazolin-9-yl)amino)pyrimidin-4-yl)oxy)-1-methylcyclohexan-1-ol] |  | 100 to 500 nM | 40 to 79% | 
5 | CN1CCOCCOc2ccc(Nc3nc(NCC(C)(C)O)c4cc[nH]c4n3)cc2OCC1 [Example 90, 2-methyl-1-((2-((7-methyl-2,3,6,7,8,9-hexahydro-5H-benzo[b][1,4,7]trioxa[10]azacyclododecan-12-yl)amino)-7H-pyrrolo[2,3-d]pyrimidin-4-yl)amino)propan-2-ol] | > 80% |  |  | 
6 | Cc1cnc(Nc2ccc3c(c2)OCCN(C)CCO3)nc1O[C@H]1CC[C@@](C)(O)CC1 [Example 101, (1s,4s)-1-methyl-4-((5-methyl-2-((4-methyl-3,4,5,6-tetrahydro-2H-benzo[b][1,4,7]dioxazolin-9-yl)amino)pyrimidin-4-yl)oxy)cyclohexan-1-ol] |  |  | 40 to 79% | 

Next, values leading:

Row | inhibition at 2 µM [1] | IC50 (LRRK2) | inhibition at 1 µM [1] | IC50 [1] | SMILES
7 | 40 to 79% | < 100 nM |  |  | CN1CCOc2ccc(Nc3ncc(C(F)(F)F)c(NC[C@@H]4CCO4)n3)cc2OCC1 [Example 92, (S)-N^2-(4-methyl-3,4,5,6-tetrahydro-2H-benzo[b][1,4,7]dioxazolin-9-yl)-N^4-(oxetan-2-ylmethyl)-5-(trifluoromethyl)pyrimidin-2,4-diamine]
8 | 40 to 79% |  |  |  | CN1CCOCCOc2ccc(Nc3ncc(C(F)(F)F)c(NCCS(C)(=O)=O)n3)cc2OCC1 [Example 89, N^2-(7-methyl-2,3,6,7,8,9-hexahydro-5H-benzo[b][1,4,7]trioxa[10]azacyclododecyl-12-yl)-N^4-(2-(methylsulfonyl)ethyl)-5-(trifluoromethyl)pyrimidin-2,4-diamine]
9 | > 80% |  |  |  | CN1CCOc2ccc(Nc3ncc(C(F)(F)F)c(NCC(C)(C)O)n3)cc2OCC1 [Example 8, 2-methyl-1-((2-((4-methyl-3,4,5,6-tetrahydro-2H-benzo[b][1,4,7]dioxazolin-9-yl)amino)-5-(trifluoromethyl)pyrimidin-4-yl)amino)propan-2-ol]
10 |  | < 100 nM |  | < 100 nM | CN1CCOc2ccc(Nc3ncc(C(F)(F)F)c(Nc4ccccc4)n3)cc2OCC1 [Example 91, N^2-(4-methyl-3,4,5,6-tetrahydro-2H-benzo[b][1,4,7]dioxazolin-9-yl)-N^4-phenyl-5-(trifluoromethyl)pyrimidin-2,4-diamine]
11 |  | < 100 nM |  |  | COc1ccccc1Nc1nc(Nc2ccc3c(c2)OCCN(C)CCO3)ncc1C(F)(F)F [Example 95, N^4-(2-methoxyphenyl)-N^2-(4-methyl-3,4,5,6-tetrahydro-2H-benzo[b][1,4,7]dioxazolin-9-yl)-5-(trifluoromethyl)pyrimidin-2,4-diamine]
12 | > 80% |  |  |  | CN1CCOCCOc2ccc(Nc3ncc(C(F)(F)F)c(NC[C@@H]4CCO4)n3)cc2OCC1 [Example 88, (S)-N^2-(7-methyl-2,3,6,7,8,9-hexahydro-5H-benzo[b][1,4,7]trioxa[10]azacyclododecan-12-yl)-N^4-(oxetan-2-ylmethyl)-5-(trifluoromethyl)pyrimidin-2,4-diamine]
13 |  |  | > 0% |  | COCc1ccccc1Nc1nc(Nc2ccc3c(c2)OCCN(C)CCO3)ncc1C(F)(F)F [Example 94, N^4-(2-(methoxymethyl)phenyl)-N^2-(4-methyl-3,4,5,6-tetrahydro-2H-benzo[b][1,4,7]dioxazolin-9-yl)-5-(trifluoromethyl)pyrimidin-2,4-diamine]
14 |  |  | > 0% |  | CN1CCOc2ccc(Nc3ncc(C(F)(F)F)c(NCC4(C#N)CC4)n3)cc2OCC1 [Example 96, 1-(((2-((4-methyl-3,4,5,6-tetrahydro-2H-benzo[b][1,4,7]dioxazolin-9-yl)amino)-5-(trifluoromethyl)pyrimidin-4-yl)amino)methyl)cyclopropan-1-carbonitrile]
15 |  | < 100 nM |  |  | COCc1ccccc1Nc1nc(Nc2ccc3c(c2)OCCN(C)CCOCCO3)ncc1C(F)(F)F [Example 116, N^4-(2-(methoxymethyl)phenyl)-N^2-(7-methyl-2,3,6,7,8,9-hexahydro-5H-benzo[b][1,4,7]trioxa[10]azacyclododecan-12-yl)-5-(trifluoromethyl)pyrimidin-2,4-diamine]
